# Test results reported in article PMC10947113, “A Bivalent Activatable Fluorescent Probe for Screening and Intravital Imaging of Chemotherapy‐Induced Cancer Cell Death” (Angewandte Chemie (Weinheim an Der Bergstrasse, Germany), 2021).
# Columns and labels:
# [1] = test system: MMTV-PyMT mammary gland tumours; assay: Intravital imaging and ex vivo quantification of cisplatin-induced apoptosis; assay type: in vivo, mouse
# Description: Optical intravital imaging is increasingly used for the preclinical evaluation of anticancer drugs in vivo. Although imaging modalities like computed tomography, positron emission tomography and magnetic resonance imaging can help to visualise whole intact organs in a non‐invasive manner,[26] they lack the spatiotemporal resolution needed to study dynamic interactions between individual tumour and stromal cells. This feature is critical to understand the mechanism of action of anticancer drugs and how they can affect interactions between cancer cells and immune cells in the tumour microenvironment.[27] Intravital imaging heavily relies on the acquisition of fluorescence signals using multiphoton microscopy, which provides cellular resolution with deep tissue penetration (≈500 μm) and minimal photodamage.[28] […] First, we analysed the chemical stability of Apotracker Red for in vivo studies by incubating the probe in mouse serum. […] When primary tumours measured around 0.5–1 cm in diameter, we administered cisplatin intraperitoneally (10 mg kg^−1). […]
# were centrifuged (300 g, 5 min, r.t.), washed once with PBS before addition of 0.05% Trypsin, 0.02% ethylenediaminetetraacetic acid (EDTA) in Hank’s balanced salt solution (HBSS) and incubation at 37°C for 5 min. […] Histograms and mean fluorescence intensities of apoptotic cells were measured on a 5L LSR flow cytometer under the following […]
# [2] = test system: 8 cancer cell lines; assay: Classification of drugs by Apotracker Red (apoptosis) and CellTrace Violet (proliferation) staining; assay type: cell-based; settings: 8 cancer cell lines, 24 h treatment, flow cytometry
# Procedure: To corroborate the versatility of Apotracker Red, we built a screening platform including a total of 8 cancer cell lines of variable origin and pathogenesis: breast (MCF7, MDA‐MB231 and MMTV‐PyMT (mouse mammary tumour virus‐polyoma middle tumour‐antigen)[23]), lung (A549), prostate (PC3 and LnCap), blood cells (Jurkat) and colon (HT29). All cell lines were cultured under standard conditions and seeded with the fluorescent proliferation marker CellTrace^TM Violet (CV) in 96‐well plates (10–20×10^3 cells/well) for high‐throughput flow cytometry. After drug treatment (i.e., drug addition plus 24 h incubation), Apotracker Red was incubated for 10 min and fluorescence readings were directly acquired without any additional processing steps (Figure 3 a). […] Using this platform, we tested a collection of FDA‐approved drugs in all cancer cell lines and compared their ability to induce apoptosis using Apotracker Red as the reporter. Specifically, we included DNA alkylation agents (e.g., cyclophosphamide, cisplatin, 5‐fluorouracil, gemcitabine, temozolomide), proteasomal and mitotic inhibitors (e.g., bortezomib, docetaxel, paclitaxel) and antagonists of specific proteins (e.g., dexamethasone, tamoxifen; Figure 3 b).
# First, all drugs were tested in the 8 different cell lines to determine the percentages of Apotracker Red‐stained apoptotic cells compared to no treatment (Figure 3 c; Figure S8). […] All 5 drugs were tested at multiple concentrations (from 1 to 100 μM) and with incubation times up to 48 h to examine whether drugs could block cell proliferation at late stages (Figures S9–S13).
# Figure S8. Heatmap of relative inhibition of cell proliferation (as indicated by staining of CellTraceTM Violet) after treatment of cancer cell lines with different drugs. Data presented as an average of 3 independent experiments. Cells were stained on day 0 with CellTraceTM Violet (1 µM) and mean fluorescence intensities were determined on the 5L LSR after 24 h of treatment with the different drugs. […]
# Cell culture. MCF-7, A549, LnCap, MDA-MB-231, Jurkat T cells and PC3 cells were obtained from American Type Culture Collection (ATCC). HT29 cells were purchased from Merck (S i g m a Aldrich, UK). Mouse Mammary Tumour Virus –Polyoma Middle T antigen (MMTV -PyMT) cells were provided by the lab of Mikala Egeblad (CSHL, US). MMTV-PyMT, MCF-7, LnCap, MDA-MB-231 and Jurkat T cells were cultured in Roswell Park Memorial Institute (RPMI) 1640 Medium supplemented with 10% fetal bovine serum (FBS) , 100 U mL-1 penicillin and 0.1 mg mL-1 streptomycin. A549 and PC3 cells were cultured in Dublecco’s modified Eagle’s medium (DMEM) supplemented with 10% fetal bovine serum (FBS), 100 U mL-1 penicillin and 0.1 mg […]
# Flow cytometry drug screen.
smiles,measurement,setting,value
N.N.[Cl][Pt][Cl] [cisplatin],Apotracker Red fluorescence in tumours of cisplatin-treated mice (cancer cell death),"[1]; MMTV-PyMT;ACTB-ECFP mice, cisplatin 10 mg kg^-1 intraperitoneally, Apotracker Red 650 ng i.v. after 72 h, two-photon intravital imaging",strong red fluorescent signals indicating cancer cell death induced by the drug
same,"relative percentages of apoptotic cells in tumours, ex vivo quantification","[1]; cisplatin 10 μg g^-1 i.p., day 3, at least 5 tumour areas per mouse, mean±SEM, one-way ANOVA p<0.05",significant differences
same,drug group by Apotracker Red (apoptosis) and CV (proliferation) staining,[2],induced apoptosis and decreased cell proliferation
